Test results reported in ChEMBL document CHEMBL4823311, “Optimization of Naphthyridones into Selective TATA-Binding Protein Associated Factor 1 (TAF1) Bromodomain Inhibitors” (ACS Med Chem Lett, 2021).
≈ marks a conversion by molar mass, not a printed value.

Columns and labels:
[1] = molecular target: T1, Transcription initiation factor TFIID subunit 1 (Homo sapiens, UniProt P21675); test: Inhibition of human partial length TAF1 bromodomain 2 (D1521 to D1656 residues) expressed in bacterial expression system by BROMOscan assay
T1 sequence (P21675 whole entry, the tested form may be a part): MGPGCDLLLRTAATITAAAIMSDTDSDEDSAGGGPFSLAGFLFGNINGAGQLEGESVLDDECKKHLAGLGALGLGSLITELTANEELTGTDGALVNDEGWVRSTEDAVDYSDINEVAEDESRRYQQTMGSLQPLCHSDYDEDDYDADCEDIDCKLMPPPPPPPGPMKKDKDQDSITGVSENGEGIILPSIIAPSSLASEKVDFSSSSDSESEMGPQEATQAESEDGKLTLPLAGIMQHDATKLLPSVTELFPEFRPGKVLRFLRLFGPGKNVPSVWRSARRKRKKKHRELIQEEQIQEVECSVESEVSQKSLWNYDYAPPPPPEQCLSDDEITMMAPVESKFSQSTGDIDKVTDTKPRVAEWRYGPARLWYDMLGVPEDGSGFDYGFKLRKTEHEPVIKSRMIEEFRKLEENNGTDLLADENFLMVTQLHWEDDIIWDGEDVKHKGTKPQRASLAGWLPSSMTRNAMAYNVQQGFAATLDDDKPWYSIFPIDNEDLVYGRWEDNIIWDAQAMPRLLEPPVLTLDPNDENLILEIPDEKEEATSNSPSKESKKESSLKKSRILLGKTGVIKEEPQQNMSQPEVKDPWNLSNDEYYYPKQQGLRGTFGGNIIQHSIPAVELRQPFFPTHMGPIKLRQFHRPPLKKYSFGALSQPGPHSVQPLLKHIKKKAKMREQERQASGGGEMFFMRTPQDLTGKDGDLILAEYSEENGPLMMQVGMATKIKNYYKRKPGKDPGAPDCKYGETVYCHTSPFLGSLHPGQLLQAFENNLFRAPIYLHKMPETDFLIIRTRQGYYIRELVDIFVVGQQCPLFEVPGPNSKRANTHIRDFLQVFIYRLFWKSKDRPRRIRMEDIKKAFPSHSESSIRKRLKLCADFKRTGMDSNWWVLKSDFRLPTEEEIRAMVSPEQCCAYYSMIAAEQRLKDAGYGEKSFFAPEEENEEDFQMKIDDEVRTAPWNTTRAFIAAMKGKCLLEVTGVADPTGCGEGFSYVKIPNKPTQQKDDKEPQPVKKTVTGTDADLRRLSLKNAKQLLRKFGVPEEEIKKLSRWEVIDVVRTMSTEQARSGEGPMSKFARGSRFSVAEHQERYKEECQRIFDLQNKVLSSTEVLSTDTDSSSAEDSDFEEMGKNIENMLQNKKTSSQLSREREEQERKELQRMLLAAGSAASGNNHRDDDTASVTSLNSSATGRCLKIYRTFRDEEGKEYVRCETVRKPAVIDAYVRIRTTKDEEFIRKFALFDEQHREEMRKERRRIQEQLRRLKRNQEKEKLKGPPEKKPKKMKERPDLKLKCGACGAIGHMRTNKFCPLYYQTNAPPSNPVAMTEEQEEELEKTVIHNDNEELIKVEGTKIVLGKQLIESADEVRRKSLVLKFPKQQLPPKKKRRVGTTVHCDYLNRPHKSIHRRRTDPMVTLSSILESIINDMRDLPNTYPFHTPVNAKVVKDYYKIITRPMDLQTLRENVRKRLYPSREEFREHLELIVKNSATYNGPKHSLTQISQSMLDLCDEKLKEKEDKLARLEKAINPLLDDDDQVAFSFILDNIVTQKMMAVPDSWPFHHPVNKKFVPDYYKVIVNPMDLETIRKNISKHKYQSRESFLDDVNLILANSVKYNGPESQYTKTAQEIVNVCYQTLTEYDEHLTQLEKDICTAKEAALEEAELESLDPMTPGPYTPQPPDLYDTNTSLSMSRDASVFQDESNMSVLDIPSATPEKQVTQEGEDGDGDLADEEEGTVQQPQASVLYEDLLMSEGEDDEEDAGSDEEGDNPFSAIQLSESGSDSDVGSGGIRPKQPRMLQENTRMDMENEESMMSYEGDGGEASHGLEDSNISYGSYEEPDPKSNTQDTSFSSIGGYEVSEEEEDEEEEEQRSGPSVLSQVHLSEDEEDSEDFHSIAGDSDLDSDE

[2] = Lipophilicity, logD of the compound at pH 7.4 by chromatographic method; assay type: physicochemical; conditions: buffer
[3] = molecular target: T1, Transcription initiation factor TFIID subunit 1; test: Inhibition of TAF1 bromodomain 2 (unknown origin) by TR-FRET assay
[4] = molecular target: T1, Transcription initiation factor TFIID subunit 1; test: Displacement of Halo-tagged histone H4 from NanoLuc-tagged TAF1 bromodomain 2 (unknown origin) expressed in HEK293 cells measured after 4 to 6 hrs by NanoBRET assay; assay type: cell-based
[5] = Solubility of the compound by CAD method; assay type: physicochemical
[6] = molecular target: T2, Bromodomain-containing protein 4 (Homo sapiens, UniProt O60885); test: Inhibition of human partial length BRD4 BD2 (K333 to E460 residues) expressed in bacterial expression system by BROMOscan assay
[7] = molecular target: T2, Bromodomain-containing protein 4; test: Inhibition of BRD4 BD1 (unknown origin) by TR-FRET assay
[8] = molecular target: T3, Bromodomain-containing protein 9 (Homo sapiens, UniProt Q9H8M2); test: Inhibition of human partial length BRD9 (R130 to V259 residues) expressed in bacterial expression system measured by BROMOscan assay
T3 sequence (Q9H8M2 whole entry): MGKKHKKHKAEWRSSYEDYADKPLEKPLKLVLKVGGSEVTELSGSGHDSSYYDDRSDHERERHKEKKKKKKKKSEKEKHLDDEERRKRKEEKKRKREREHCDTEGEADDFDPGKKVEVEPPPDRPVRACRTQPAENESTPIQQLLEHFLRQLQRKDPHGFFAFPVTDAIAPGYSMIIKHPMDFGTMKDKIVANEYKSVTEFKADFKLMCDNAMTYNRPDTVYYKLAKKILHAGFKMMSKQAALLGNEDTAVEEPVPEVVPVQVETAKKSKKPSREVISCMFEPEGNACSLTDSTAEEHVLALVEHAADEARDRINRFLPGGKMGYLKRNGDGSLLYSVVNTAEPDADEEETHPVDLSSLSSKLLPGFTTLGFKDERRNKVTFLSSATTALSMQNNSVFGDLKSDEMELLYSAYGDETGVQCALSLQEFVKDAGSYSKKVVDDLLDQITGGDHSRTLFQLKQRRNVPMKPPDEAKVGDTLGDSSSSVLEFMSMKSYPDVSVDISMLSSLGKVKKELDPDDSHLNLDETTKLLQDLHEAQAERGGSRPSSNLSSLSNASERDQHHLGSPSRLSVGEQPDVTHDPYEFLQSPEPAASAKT

[9] = molecular target: T2, Bromodomain-containing protein 4; test: Inhibition of BRD4 BD2 (unknown origin) measured by TR-FRET assay

Ki [1]: 0.794 nM
chromatographic logD [2]: 2.7
IC50 [3]: 39.8 nM
IC50 [4]: > 10000 nM
solubility [5]: 24 µg/mL (≈ 53.6 µM)
Ki [6]: 794 nM
IC50 [7]: > 20000 nM
Ki [8]: 39.8 nM
IC50 [9]: 5010 nM
Compound: Cc1cc2c(C3=CCOCC3)cnc(NC3CCN(C(=O)C(F)(F)CN)CC3)c2[nH]c1=O
